In PMC4260654 (Cell host & microbe, 2014):

What was measured:
CLOSPO_02083 = biological target: T1, CLOSPO_02083 (Clostridium sporogenes, UniProt J7SZ64); test: progress curves of tryptamine production by HPLC, kobs vs [I]; format: biochemical; settings: read-out: Ki
T1 sequence (J7SZ64 1-417): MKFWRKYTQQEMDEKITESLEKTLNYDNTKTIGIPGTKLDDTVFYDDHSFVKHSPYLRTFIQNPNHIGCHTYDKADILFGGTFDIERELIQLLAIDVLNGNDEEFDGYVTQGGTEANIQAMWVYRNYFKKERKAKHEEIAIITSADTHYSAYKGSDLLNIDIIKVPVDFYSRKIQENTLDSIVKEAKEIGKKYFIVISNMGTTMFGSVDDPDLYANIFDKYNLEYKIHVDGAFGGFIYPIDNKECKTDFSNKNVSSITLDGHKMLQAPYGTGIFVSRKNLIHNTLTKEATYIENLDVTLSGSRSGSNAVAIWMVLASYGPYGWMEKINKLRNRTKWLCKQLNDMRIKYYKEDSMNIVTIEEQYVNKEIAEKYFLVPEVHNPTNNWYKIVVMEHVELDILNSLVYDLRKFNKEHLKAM

RUMGNA_01526 = RUMGNA_01526 (Mediterraneibacter gnavus, UniProt A7B1V0); test: X-ray crystal structure at […] Å; format: biochemical; settings: read-out: Ki

`NC(CF)(Cc1c[nH]c2ccccc12)C(=O)O` (stereo in doubt) [I, (S)-α-FMT] gave a KI (inactivation) (CLOSPO_02083) of 0.2 µM and a KI (inactivation) (RUMGNA_01526) of 178 µM.
